Measurements published in PMC10877733, “Discovery and Characterization of VU0542270, the First Selective Inhibitor of Vascular Kir6.1/SUR2B KATP Channels” (Molecular Pharmacology, 2024).

Assays:
Kir4.1 = target: T1, Kir4.1 (Homo sapiens, UniProt P78508); test: Thallium flux selectivity assay Kir4.1; type: cell-based
T1 construct: expressed in transfected cells
T1 sequence (P78508 1-379): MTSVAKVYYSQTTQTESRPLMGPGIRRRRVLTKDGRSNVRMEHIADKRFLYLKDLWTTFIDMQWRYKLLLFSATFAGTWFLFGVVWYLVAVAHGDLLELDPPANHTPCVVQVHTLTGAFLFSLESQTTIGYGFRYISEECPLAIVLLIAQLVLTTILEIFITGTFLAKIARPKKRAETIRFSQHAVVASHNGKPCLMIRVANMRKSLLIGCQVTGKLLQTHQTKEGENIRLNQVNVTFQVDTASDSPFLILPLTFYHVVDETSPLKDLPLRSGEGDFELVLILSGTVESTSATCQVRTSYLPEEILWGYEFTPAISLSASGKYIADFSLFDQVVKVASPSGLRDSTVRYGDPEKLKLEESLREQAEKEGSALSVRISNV
Method: (§1) Quantitative thallium flux assays of Kir6.1/SUR2B activity were performed essentially as described previously for Kir6.2/SUR1 ([Raphemot et al., 2014]; [Kharade et al., 2019]). Stable T-Rex-HEK293-Kir6.1/SUR2B cells or transiently transfected HEK293T cells were plated in polyamine-coated, clear-bottomed, black-walled 384-well plates and were cultured (37°C/5% CO2) overnight in Dulbecco’s modified Eagle’s medium (Gibco, Carlsbad, CA, 11995-065) containing 10% FBS (2 mM Penicillin-Streptomycin). The following day, cells were washed with assay buffer (i.e., Hanks’ balanced salt solution/20 mM HEPES) and loaded for 1 hour with thallium sensor dye Brilliant Thallium (Ion Bioscience, San Marcos, TX) at room temperature. Dye-loaded cells were washed with assay buffer and transferred to a Panoptic Kinetic Imaging Plate Reader (Wavefront Bioscience, Franklin, TN). Control and test compound treatments were for 4 minutes prior to adding 0.5 mM chloride-free thallium stimulus buffer (Ion Bioscience) to initiate thallium flux. […] Selectivity assays against other Kir channels were performed essentially as described previously ([Kharade et al., 2018]; [McClenahan et al., 2022]).

[1] = tested on: nine other members of the Kir channel family; test: Thallium assays, panel of nine other members of the Kir channel family; type: cell-based; conditions: read-out: IC50 against panel of nine other Kir channel family members
Method: as §1

[2] = Brain:plasma distribution in rat; type: in vivo; conditions: male, Sprague Dawley, brain and plasma, IV 0.2 mg/kg, 15 minutes postdose
Method: VU0542270 was formulated as a solution in ethanol, PEG400, and saline (1:4:5 v/v, respectively) and administered to male Sprague Dawley rats (n = 1) intravenously at 0.2 mg/kg. At 15 minutes postdose, a blood sample was collected terminally into chilled K2EDTA anticoagulant-fortified tubes and immediately placed on wet ice. The blood sample was then centrifuged (1700 rcf, 5 minutes, 4°C) to obtain a plasma sample. At the same postadministration time point(s), a whole-brain sample was obtained by rapid dissection, rinsing with PBS, and immediate freezing in individual tissue collection boxes (dry ice). All brain and plasma samples were stored at −80°C until analysis by LC-MS/MS. In vivo brain:plasma distribution partition coefficient of VU0542270 was determined from the observed animal brain versus plasma concentrations.
Plasma samples from the in-life phases of the studies were thawed at ambient temperature (benchtop), and then aliquots (20 µL per sample) were transferred to a 96-shallow-well (V-bottom) plate. […]
Prepared samples were injected (10 µL each) onto an AB Sciex triple quad-4500 mass spectrometer system with an Agilent 1290 Infinity Binary Pump and multisampler. […] Quantitation of VU0542270 was performed via AB Sciex Analyst software using the raw analyte:IS peak area ratios. […]

Q: Which results are given for `Cc1nc(-c2cccs2)sc1CNC(=O)Nc1cccs1` [VU0542270]?
A: IC50 (Kir4.1): > 30 µM; IC50 [1]: > 30 µM; Kp at 0.25 h [2]: 0.11
